Target: T1, IRAK1 (Homo sapiens, UniProt P51617)
T1 construct: active recombinant IRAK1 enzyme
Test: SPR ([…] model); supported by KINOMEscan active-site competition binding and CETSA in A2780 cells

T1 sequence (P51617 whole entry): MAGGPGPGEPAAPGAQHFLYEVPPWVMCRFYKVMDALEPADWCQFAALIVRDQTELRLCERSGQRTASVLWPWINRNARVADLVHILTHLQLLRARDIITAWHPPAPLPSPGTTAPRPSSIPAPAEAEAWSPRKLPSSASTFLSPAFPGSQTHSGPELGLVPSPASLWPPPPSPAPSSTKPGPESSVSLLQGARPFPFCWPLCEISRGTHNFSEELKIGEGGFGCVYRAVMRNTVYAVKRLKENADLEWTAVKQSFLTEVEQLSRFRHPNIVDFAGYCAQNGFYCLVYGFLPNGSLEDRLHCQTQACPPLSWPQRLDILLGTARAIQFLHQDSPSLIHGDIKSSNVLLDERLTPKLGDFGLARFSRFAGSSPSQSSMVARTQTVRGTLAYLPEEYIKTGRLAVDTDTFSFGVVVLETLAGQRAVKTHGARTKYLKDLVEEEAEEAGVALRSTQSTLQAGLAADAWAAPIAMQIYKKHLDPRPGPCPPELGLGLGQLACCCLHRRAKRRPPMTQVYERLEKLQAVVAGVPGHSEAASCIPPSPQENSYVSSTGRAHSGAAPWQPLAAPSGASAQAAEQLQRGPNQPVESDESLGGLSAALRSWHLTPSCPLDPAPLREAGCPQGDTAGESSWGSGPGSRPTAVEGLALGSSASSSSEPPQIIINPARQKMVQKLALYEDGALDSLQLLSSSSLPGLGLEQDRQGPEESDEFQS

Kd: 1760 nM
Compound: O=C(NO)c1ccc2[nH]c(=O)c(CCCc3ccccc3)nc2c1 [TCS2210]
